Experimental data as given in patent publication US20030055405A1, “Iontophoretic Drug Delivery Device and Reservoir and Method of Making Same” (Vyteris, Inc., priority 1993, published 2003).

Experiment: Shelf stability of the loaded reservoir electrode assembly in storage
Assay type: physicochemical
Details: incorporated into the reservoir
Excerpt: In the present example, an aqueous loading solution of 30% lidocaine HCI, 3% epinephrine, 30% glycerin, 0.05% sodium metabisulfite, 0.03% ethylene diamine tetraacetic acid, and 0.06% citric acid are used for the loading solution. The medicaments for delivery are lidocaine HCI and epinephrine, the glycerin serves as a humectant, the other minor components serve to enhance drug stability by chelating metal ions and serving as antioxidants. In order to load this solution onto the reservoir with electrode 112, laminate release liner 132 is removed from side 118 of reservoir 114 and a three-hundred microliter aliquot of this loading solution is applied to exposed surface 118, which is then covered with a final cover that remains in place until the reservoir is applied to a patient to protect the reservoir.

CNC[C@H](O)c1ccc(O)c(O)c1 [epinephrine, Epinephrine Bitartrate]
shelf stability of labile medicament: satisfactory shelf stability
